Assay results from patent US20230365537A1, “POLO LIKE KINASE 4 INHIBITORS” (ORIC Pharmaceuticals, Inc., priority 2021, published 2023).

What was measured:
[1] = target: human recombinant Aurora B (Homo sapiens (Human), UniProt Q96GD4); assay: Aurora B Kinase Biochemical Assay (ADP-Glo); details: ratio of Aurora B IC50 to PLK4 IC50 (selectivity)
Method in brief: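 IC50 derived by four-parameter nonlinear fit of ADP-Glo luminescence (ADP produced). Compound was preincubated 15 min at RT with 20 nM recombinant human Aurora B, in 50 mM HEPES pH 7.5, 10 mM MgCl2, 1 mM EGTA, 1 mM DTT, 0.01% Brij-35/BSA.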

[2] = target: human recombinant Aurora A (Homo sapiens (Human), UniProt O14965); assay: Aurora A Kinase Biochemical Assay (ADP-Glo); details: ratio of Aurora A IC50 to PLK4 IC50 (selectivity)
human recombinant Aurora A, sequence (O14965 whole entry): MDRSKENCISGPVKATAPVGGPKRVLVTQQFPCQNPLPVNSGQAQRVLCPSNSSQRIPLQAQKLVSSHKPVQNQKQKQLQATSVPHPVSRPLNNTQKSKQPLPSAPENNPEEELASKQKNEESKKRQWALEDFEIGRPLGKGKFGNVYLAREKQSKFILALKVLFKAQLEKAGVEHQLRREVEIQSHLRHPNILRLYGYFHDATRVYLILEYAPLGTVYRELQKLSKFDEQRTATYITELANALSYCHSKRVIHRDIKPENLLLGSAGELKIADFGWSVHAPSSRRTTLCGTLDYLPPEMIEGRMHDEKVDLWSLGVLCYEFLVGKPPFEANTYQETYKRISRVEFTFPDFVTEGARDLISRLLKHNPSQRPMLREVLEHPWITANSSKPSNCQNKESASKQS

[3] = target: human recombinant PLK4 (Homo sapiens (Human), UniProt O00444); assay: PLK4 Biochemical Assay (ADP-Glo); details: 0.5 nM PLK4, 8.0 µM ATP, 4.7 µM MBP, 6 hours at RT
human recombinant PLK4, sequence (O00444 whole entry): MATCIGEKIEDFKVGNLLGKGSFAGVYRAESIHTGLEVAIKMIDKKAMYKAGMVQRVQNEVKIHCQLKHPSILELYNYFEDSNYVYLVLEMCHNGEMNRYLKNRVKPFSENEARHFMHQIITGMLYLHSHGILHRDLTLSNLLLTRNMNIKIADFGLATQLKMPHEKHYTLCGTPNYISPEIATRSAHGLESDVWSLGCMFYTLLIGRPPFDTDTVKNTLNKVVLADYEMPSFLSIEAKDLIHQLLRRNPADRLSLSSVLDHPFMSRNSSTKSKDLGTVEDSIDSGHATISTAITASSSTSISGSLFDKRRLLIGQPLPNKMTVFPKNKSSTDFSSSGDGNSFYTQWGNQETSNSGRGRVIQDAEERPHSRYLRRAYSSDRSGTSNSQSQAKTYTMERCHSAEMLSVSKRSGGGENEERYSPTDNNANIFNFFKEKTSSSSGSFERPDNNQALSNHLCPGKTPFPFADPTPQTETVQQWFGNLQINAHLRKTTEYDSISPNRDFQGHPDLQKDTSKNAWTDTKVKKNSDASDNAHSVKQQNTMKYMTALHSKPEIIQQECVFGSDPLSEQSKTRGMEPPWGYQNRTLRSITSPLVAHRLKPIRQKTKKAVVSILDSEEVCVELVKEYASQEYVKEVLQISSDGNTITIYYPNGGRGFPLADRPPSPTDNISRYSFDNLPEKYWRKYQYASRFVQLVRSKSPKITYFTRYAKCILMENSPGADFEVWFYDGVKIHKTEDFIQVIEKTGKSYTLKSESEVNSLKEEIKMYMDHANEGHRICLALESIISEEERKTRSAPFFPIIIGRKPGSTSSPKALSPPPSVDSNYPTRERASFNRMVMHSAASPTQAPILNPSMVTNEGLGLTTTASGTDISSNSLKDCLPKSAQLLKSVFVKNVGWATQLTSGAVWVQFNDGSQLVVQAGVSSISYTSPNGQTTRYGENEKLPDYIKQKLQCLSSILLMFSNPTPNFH
Method in brief: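 Luminescent ADP-Glo detection quantified ADP production, with ATP depletion for 40 min and detection for 30 min at room temperature. Compound and PLK4 (1.0 nM stock addition) were preincubated 15 min in HEPES pH 7.5 buffer containing MgCl2, EGTA, DTT, Brij-35 and BSA. IC50 values were obtained by four-parameter nonlinear regression.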

[4] = test system: CHP-134 cells; assay: CHP134 CellTiter-Glo (CTG) Assay; type: cell-based; details: 5 days, viable cells by CellTiter-Glo
Method in brief: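 Nine-point 1:3 dilution series, diluted into growth media, added in quadruplicate to CHP-134 cells plated 16 h earlier at 200 cells/well.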

human recombinant Aurora B, sequence (Q96GD4 whole entry): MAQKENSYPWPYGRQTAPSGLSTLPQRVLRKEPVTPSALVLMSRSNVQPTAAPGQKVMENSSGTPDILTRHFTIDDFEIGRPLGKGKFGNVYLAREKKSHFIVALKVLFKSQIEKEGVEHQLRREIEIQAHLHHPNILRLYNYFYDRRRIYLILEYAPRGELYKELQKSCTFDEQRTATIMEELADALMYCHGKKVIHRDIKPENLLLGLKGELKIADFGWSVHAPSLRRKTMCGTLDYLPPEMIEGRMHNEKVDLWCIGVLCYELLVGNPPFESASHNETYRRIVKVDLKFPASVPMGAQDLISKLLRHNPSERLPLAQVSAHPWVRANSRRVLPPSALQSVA

Compound | [Aurora B IC50 (nM)]/[PLK4 IC50 (nM)] [1] | [Aurora A IC50 (nM)]/[PLK4 IC50 (nM)] [2] | IC50 [3] [nM] | IC50 ([4]; Homo sapiens, CHP-134, 120 h) [nM] | IC50 [4] [nM]
CCOc1cc(C(=O)N(C)C)cnc1Nc1n[nH]c2cc([C@@H]3C[C@@]34C(=O)Nc3ccc(OC)cc34)ccc12 [Example 203, 5-ethoxy-6-({6-[(1R,2S)-5′-methoxy-2′-oxo-1’,2′-dihydrospiro[cyclopropane-1,3′-indol]-2-yl]-1H-indazol-3-yl}amino)-N,N-dimethylpyridine-3-carboxamide] | 333.7812 | 2922.2649 | 1.04 | 324 | 
CCS(=O)(=O)c1ccc(OC)c(Nc2n[nH]c3cc([C@@H]4C[C@@]45C(=O)Nc4ccc(OC)cc45)ccc23)c1 [Example 175, (1R,2S)-2-{3-[5-(ethanesulfonyl)-2-methoxyanilino]-1H-indazol-6-yl}-5′-methoxyspiro[cyclopropane-1,3′-indol]-2′(1′H)-one] | 8627.0664 | 14009.5265 | 3.57 | 2210 | 
COc1ccc2c(c1)[C@]1(C[C@H]1c1ccc3c(Nc4nc(OC)ncc4Cl)n[nH]c3c1)C(=O)N2 [Example 23, (1R,2S)-2-{3-[(5-chloro-2-methoxypyrimidin-4-yl)amino]-1H-indazol-6-yl}-5′-methoxyspiro[cyclopropano-1,3′-indol]-2′(1′H)-one] | 170.7409 | 215.5309 | 5.05 | 45.9 | 
COc1ccc2c(c1)[C@]1(C[C@H]1c1ccc3c(Nc4nc(C)ncc4C4CC4)n[nH]c3c1)C(=O)N2 [Example 140, (1R,2S)-2-{3-[(5-cyclopropyl-2-methylpyrimidin-4-yl)amino]-1H-indazol-6-yl}-5′-methoxyspiro[cyclopropane-1,3′-indol]-2′(1′H)-one] | 537 | 814 | 16.6 | 7760 | 
COc1ccc2c(c1)[C@]1(C[C@H]1c1ccc3c(Nc4nc(Cl)nc(N5CCOCC5)c4OC)n[nH]c3c1)C(=O)N2 [Example 48, (1R,2S)-2-(3-{[2-chloro-5-methoxy-6-(morpholin-4-yl)pyrimidin-4-yl]amino}-1H-indazol-6-yl)-5′-metboiyspiro[cyclopropane-1,3′-indol]-2′(1′H)-one] | 292.3406 | 1948.123 | 3.28 | 742 | 
COc1ccc2c(c1)[C@]1(C[C@H]1c1ccc3c(Nc4nc(N5CCOCC5)ncc4OC)n[nH]c3c1)C(=O)N2 [Example 97, (lR,2S)-5′-methoxy-2-(3-{[5-methoxy-2-(morpholin-4-yl)pyrimidin-4-yl]amino}-1H-indazol-6-yl)spiro[cyclopropane-1,3′-indol]-2′(1′H)-one] | 520.2809 | 309.2186 | 1.14 | 222 | 
CCOc1cc(S(=O)(=O)CC)cnc1Nc1n[nH]c2cc([C@@H]3C[C@@]34C(=O)Nc3ccc(OC)cc34)ccc12 [Example 274, (1R,2S)-2-(3-{[5-(Ethanesulfonyl)-3-ethoxypyridin-2-yl]amino}-1H-indazol-6-yl)-5′-methoxyspiro[cyclopropane-1,3′-indol]-2′(1′H)-one] | 961.3368 | 2560.9436 | 0.763 | 72.3 | 
COc1ccc2c(c1)[C@]1(C[C@H]1c1ccc3c(Nc4nc(N5CCC5)ncc4OC)n[nH]c3c1)C(=O)N2 [Example 157, (1R,2S)-2-(3-{[2-(azetidin-1-yl)-5-methoxypyrimidin-4-yl]amino}-1H-indazol-6-yl)-5′-methoxyspiro[cyclopropane-1,3′-indol]-2′(1′H)-one] | 303.9548 | 510.6317 | 1.95 | 288 | 
COc1ccc2c(c1)[C@]1(C[C@H]1c1cc3[nH]nc(Nc4nc(C)ncc4OC)c3cc1F)C(=O)N2 [Example 144, (1R,2R)-2-{5-fluoro-3-[(5-methoxy-2-methylpyrimidin-4-yl)amino]-1H-indazol-6-yl}-5′-methoxyspiro[cyclopropane-1,3′-indol]-2′(1′H)-one] | 61.4367 | 852.7955 | 1.41 | 750 | 
COc1ccc2c(c1)[C@]1(C[C@H]1c1ccc3c(Nc4ccc([S+](C)[O-])nc4OC)n[nH]c3c1)C(=O)N2 (single isomer, unassigned) [Example 240] | 102.4323 | 735.1996 | 2.18 |  | 422
COc1ccc2c(c1)[C@]1(C[C@H]1c1ccc3c(Nc4cnc(S(C)(=O)=O)cc4OC)n[nH]c3c1)C(=O)N2 [Example 241, (1R,2S)-2-(3-{[6-(methanesulfonyl)-4-methoxypyridin-3-yl]amino}-1H-indazol-6-yl)-5′-methoxyspiro[cyclopropane-1,3′-indol]-2′(1′H)-one] | 253.4697 | 2066.9875 | 2.49 | 1100 | 
COc1ccc2c(c1)[C@]1(C[C@H]1c1ccc3c(Nc4ncnc(N5CCS(=O)(=O)CC5)c4OC)n[nH]c3c1)C(=O)N2 [Example 54, (1R,2S)-2-(3-((6-(1,1-dioxidothiomorpholino)-5-methoxypyrimidin-4-yl)amino)-1H-indazol-6-yl)-5′-methoxyspiro[cydopropane-1,3′-indolin]-2′-one] | 117.2684 | 1504.212 | 33.2 | 10000 | 
COc1cnc(OC)c(Nc2n[nH]c3cc([C@@H]4C[C@@]45C(=O)Nc4ccc(OC)cc45)ccc23)c1 [Example 164, (1R,2S)-2-{3-[(2,5-dimethoxypyridin-3-yl)amino]-1H-indazol-6-yl}-5′-methoxyspiro[cyclopropane-1,3′-indol]-2′(1′H)-one] | 161.2235 | 397.0049 | 6.28 | 1640 | 
COc1ccc2c(c1)[C@]1(C[C@H]1c1ccc3c(Nc4ncc(S(=O)(=O)C5CC5)cc4OC)n[nH]c3c1)C(=O)N2 [Example 258, (1R,2S)-2-(3-{[5-(Cyclopropanesulfonyl)-3-methoxypyridin-2-yl]amino}-1H-indazol-6-yl)-5′-methoxyspiro[cyclopropane-1,3′-indol]-2′(1′H)-one] | 464.7558 | 1100.4954 | 1.41 | 168 | 
COc1ccc2c(c1)[C@]1(C[C@H]1c1ccc3c(Nc4nc(C5CC5)nc(N5C[C@@H](C)O[C@@H](C)C5)c4OC)n[nH]c3c1)C(=O)N2 [Example 77, (1R,2S)-2-[3-({2-cyclopropyl-6-[(2R,6S)-2,6-dimethylmorpholin-4-yl]-5-methoxypyrimidin-4-yl}amino)-1H-indazol-6-yl]-5′-methoxyspiro[cydopropane-1,3′-indol]-2′(1′H)-one] | 1577.689 | 6738.759 | 1.76 | 725 | 
COc1ccc2c(c1)[C@]1(C[C@H]1c1ccc3c(Nc4cncc(C5COC5)n4)n[nH]c3c1)C(=O)N2 [Example 115, (1R,2S)-5′-methoxy-2-(3-{[6-(oxetan-3-yl)pyrazin-2-yl]amino}-1H-indazol-6-yl)spiro[cyclopropane-1,3′-indol]-2′(1′H)-one] | 186.3415 | 132.6035 | 8.04 | 3460 | 
COc1ccc2c(c1)[C@]1(C[C@H]1c1ccc3c(Nc4ncc(C5CS(=O)(=O)C5)nc4OC)n[nH]c3c1)C(=O)N2 [Example 254, 3-[6-methoxy-5-({6-[(1R,2S)-5′-methoxy-2′-oxo-1′,2′-dihydrospiro[cyclopropane-1,3′-indol]-2-yl]-1H-indazol-3-yl}amino)pyrazin-2-yl]-1λ6-thietane-1,1-dione] | 96.18 | 297.6878 | 5.19 | 2160 | 
CCS(=O)(=O)c1ccc(Nc2n[nH]c3cc([C@@H]4C[C@@]45C(=O)Nc4ccc(OC)cc45)ccc23)c(OC)n1 [Example 209, (1R,2S)-2-(3-{[6-(ethanesulfonyl)-2-methoxypyridin-3-yl]amino}-1H-indazol-6-yl)-5′-methoxyspiro[cyclopropane-1,3′-indol]-2′(1′H)-one] | 254.6519 | 273.2595 | 1.54 | 606 | 
COc1ccc2c(c1)[C@]1(C[C@H]1c1ccc3c(Nc4ccc(C(=O)N5C6CCC5COC6)nc4OC)n[nH]c3c1)C(=O)N2 [Example 232, (1R,2S)-5′-methoxy-2-(3-{[2-methoxy-6-(3-oxa-8-azabicyclo[3.2.1]octane-8-carbonyl)pyridin-3-yl]amino}-1H-indazol-6-yl)spiro[cyclopropane-1,3′-indol]-2′(1′H)-one] | 105.5179 | 651.7909 | 1.03 | 141 | 
